Values after ≈ are worked out from the molar mass of the structure shown. Blank lines part the entries; values can stand above or below the compound they belong to.
Key:
Nannizzia gypsea = assay: Antifungal activity against Microsporum gypseum C115 after 48 hrs; assay type: functional
Trichophyton rubrum = assay: Antifungal activity against Trichophyton rubrum C113 after 48 hrs; assay type: functional
Candida albicans [1] = assay: Antifungal activity against Candida albicans ATCC 10231 after 48 hrs; assay type: functional; conditions: ATCC 10231, 48 h
Aspergillus flavus = assay: Antifungal activity against Aspergillus flavus ATCC 9170 after 48 hrs; assay type: functional; conditions: ATCC 9170, 48 h
Aspergillus niger = assay: Antifungal activity against Aspergillus niger ATCC 9029 after 48 hrs; assay type: functional; conditions: ATCC 9029, 48 h
Cryptococcus neoformans [2] = assay: Antifungal activity against Cryptococcus neoformans ATCC 32264 after 48 hrs; assay type: functional; conditions: ATCC 32264, 48 h
Saccharomyces cerevisiae = assay: Antifungal activity against Saccharomyces cerevisiae ATCC 9763 after 48 hrs; assay type: functional; conditions: ATCC 9763, 48 h
Aspergillus fumigatus = assay: Antifungal activity against Aspergillus fumigatus ATCC 26934 after 48 hrs; assay type: functional; conditions: ATCC 26934, 48 h
Trichophyton benhamiae [3] = assay: Antifungal activity against Trichophyton mentagrophytes ATCC 9972 after 48 hrs; assay type: functional, Arthroderma benhamiae; conditions: ATCC 9972, 48 h
Pichia kudriavzevii = assay: Antifungal activity against Candida krusei C117-2000 after 48 hrs; assay type: functional
Cryptococcus neoformans [4] = assay: Antifungal activity against […] IM 00319 after 48 hrs; assay type: functional
Cryptococcus neoformans [5] = assay: Antifungal activity against […] IM 961951 after 48 hrs; assay type: functional
Cryptococcus neoformans [6] = assay: Antifungal activity against […] IM 031706 after 48 hrs; assay type: functional
Trichophyton benhamiae [7] = assay: Antifungal activity against Trichophyton mentagrophytes C943 after 48 hrs; assay type: functional, Arthroderma benhamiae
Cryptococcus neoformans [8] = assay: Antifungal activity against […] IM 052470 after 48 hrs; assay type: functional
Candida albicans [9] = assay: Antifungal activity against Candida albicans C126-2000 after 48 hrs; assay type: functional
Candida albicans [10] = assay: Antifungal activity against Candida albicans C130-2000 after 48 hrs; assay type: functional
Kluyveromyces marxianus = assay: Antifungal activity against Candida kefyr C123-2000 after 48 hrs; assay type: functional
Candida tropicalis = assay: Antifungal activity against Candida tropicalis C131-1997 after 48 hrs; assay type: functional
Cryptococcus neoformans [11] = assay: Antifungal activity against […] ATCC 32264 after 48 hrs; assay type: functional; conditions: ATCC 32264, 48 h
Cryptococcus neoformans [12] = assay: Antifungal activity against […] IM 972724 after 48 hrs; assay type: functional
Torulaspora delbrueckii = assay: Antifungal activity against Candida coliculosa C122-2000 after 48 hrs; assay type: functional
Candida albicans [13] = assay: Antifungal activity against Candida albicans C128-2000 after 48 hrs; assay type: functional
Candida parapsilosis = assay: Antifungal activity against Candida parapsilosis C124-2000 after 48 hrs; assay type: functional; conditions: Lodderomyces parapsilosis
Trichophyton benhamiae [14] = assay: Antifungal activity against Trichophyton mentagrophytes C539 after 48 hrs; assay type: functional, Arthroderma benhamiae
Candida albicans [15] = assay: Antifungal activity against Candida albicans C129-2000 after 48 hrs; assay type: functional
Cryptococcus neoformans [16] = assay: Antifungal activity against […] IM 972751 after 48 hrs; assay type: functional
Trichophyton benhamiae [17] = assay: Antifungal activity against Trichophyton mentagrophytes C738 after 48 hrs; assay type: functional, Arthroderma benhamiae
Candida albicans [18] = assay: Antifungal activity against Candida albicans C125-2000 after 48 hrs; assay type: functional
Trichophyton benhamiae [19] = assay: Antifungal activity against Trichophyton mentagrophytes C364 after 48 hrs; assay type: functional, Arthroderma benhamiae
Trichophyton benhamiae [20] = assay: Antifungal activity against Trichophyton mentagrophytes C108 after 48 hrs; assay type: functional, Arthroderma benhamiae
Cryptococcus neoformans [21] = assay: Antifungal activity against […] IM 042074 after 48 hrs; assay type: functional
Candida albicans [22] = assay: Antifungal activity against Candida albicans C127-2000 after 48 hrs; assay type: functional
Nakaseomyces glabratus = assay: Antifungal activity against Candida glabrata C115-2000 after 48 hrs; assay type: functional
Clavispora lusitaniae = assay: Antifungal activity against Candida lusitaniae C131-2000 after 48 hrs; assay type: functional
Cryptococcus neoformans [23] = assay: Antifungal activity against […] IM 031631 after 48 hrs; assay type: functional; conditions: Cryptococcus neoformans, 48 h
Cryptococcus neoformans [24] = assay: Antifungal activity against […] IM 983036 after 48 hrs; assay type: functional
Cryptococcus neoformans [25] = assay: Antifungal activity against Candida neoformans IM 983040 after 48 hrs; assay type: functional

MIC (Nannizzia gypsea): > 250 µg/mL
MIC (Trichophyton rubrum): > 250 µg/mL
MIC (Candida albicans [1]): > 250 µg/mL
MIC (Aspergillus flavus): > 250 µg/mL
MIC (Aspergillus niger): > 250 µg/mL
MIC (Cryptococcus neoformans [2]): > 250 µg/mL
MIC (Saccharomyces cerevisiae): > 250 µg/mL
MIC (Aspergillus fumigatus): > 250 µg/mL
MIC (Trichophyton benhamiae [3]): > 250 µg/mL
Compound: O=C1NC(=S)S/C1=C\[n+]1ccccc1

MIC (Nannizzia gypsea): > 250 µg/mL
MIC (Trichophyton rubrum): > 250 µg/mL
MIC (Candida albicans [1]): > 250 µg/mL
MIC (Aspergillus flavus): > 250 µg/mL
MIC (Aspergillus niger): > 250 µg/mL
MIC (Cryptococcus neoformans [2]): > 250 µg/mL
MIC (Saccharomyces cerevisiae): > 250 µg/mL
MIC (Aspergillus fumigatus): > 250 µg/mL
MIC (Trichophyton benhamiae [3]): > 250 µg/mL
Compound: COc1ccc(/C=C2\SC(=S)NC2=O)c(OC)c1OC

MIC (Pichia kudriavzevii): 31.2 µg/mL (≈ 130 µM)
MIC50 (Pichia kudriavzevii): 3.9 µg/mL (≈ 16.3 µM)
MIC80 (Pichia kudriavzevii): 7.8 µg/mL (≈ 32.6 µM)
MIC (Cryptococcus neoformans [4]): 7.8 µg/mL (≈ 32.6 µM)
MIC50 (Cryptococcus neoformans [4]): 1.9 µg/mL (≈ 7.94 µM)
MIC80 (Cryptococcus neoformans [4]): 1.9 µg/mL (≈ 7.94 µM)
MIC (Cryptococcus neoformans [5]): 7.8 µg/mL (≈ 32.6 µM)
MIC50 (Cryptococcus neoformans [5]): 1.9 µg/mL (≈ 7.94 µM)
MIC80 (Cryptococcus neoformans [5]): 7.8 µg/mL (≈ 32.6 µM)
MIC (Nannizzia gypsea): 15.6 µg/mL (≈ 65.2 µM)
MIC (Cryptococcus neoformans [6]): 7.8 µg/mL (≈ 32.6 µM)
MIC50 (Cryptococcus neoformans [6]): 1.9 µg/mL (≈ 7.94 µM)
MIC80 (Cryptococcus neoformans [6]): 3.9 µg/mL (≈ 16.3 µM)
MIC (Trichophyton rubrum): 32 µg/mL (≈ 134 µM)
MIC (Trichophyton benhamiae [7]): 0.97 µg/mL (≈ 4.05 µM)
MIC (Cryptococcus neoformans [8]): 7.8 µg/mL (≈ 32.6 µM)
MIC50 (Cryptococcus neoformans [8]): 1.9 µg/mL (≈ 7.94 µM)
MIC80 (Cryptococcus neoformans [8]): 1.9 µg/mL (≈ 7.94 µM)
MIC (Candida albicans [9]): 15.6 µg/mL (≈ 65.2 µM)
MIC50 (Candida albicans [9]): 3.9 µg/mL (≈ 16.3 µM)
MIC80 (Candida albicans [9]): 15.6 µg/mL (≈ 65.2 µM)
MIC (Candida albicans [10]): 15.6 µg/mL (≈ 65.2 µM)
MIC50 (Candida albicans [10]): 3.9 µg/mL (≈ 16.3 µM)
MIC80 (Candida albicans [10]): 7.8 µg/mL (≈ 32.6 µM)
MIC (Candida albicans [1]): 7.8 µg/mL (≈ 32.6 µM)
MIC (Kluyveromyces marxianus): 31.2 µg/mL (≈ 130 µM)
MIC50 (Kluyveromyces marxianus): 3.9 µg/mL (≈ 16.3 µM)
MIC80 (Kluyveromyces marxianus): 7.8 µg/mL (≈ 32.6 µM)
MIC (Aspergillus flavus): 250 µg/mL (≈ 1040 µM)
MIC (Candida tropicalis): 7.8 µg/mL (≈ 32.6 µM)
MIC50 (Candida tropicalis): 3.9 µg/mL (≈ 16.3 µM)
MIC80 (Candida tropicalis): 7.8 µg/mL (≈ 32.6 µM)
MIC (Cryptococcus neoformans [11]): 7.8 µg/mL (≈ 32.6 µM)
MIC50 (Cryptococcus neoformans [11]): 3.9 µg/mL (≈ 16.3 µM)
MIC80 (Cryptococcus neoformans [11]): 7.8 µg/mL (≈ 32.6 µM)
MIC (Cryptococcus neoformans [12]): 15.6 µg/mL (≈ 65.2 µM)
MIC50 (Cryptococcus neoformans [12]): 3.9 µg/mL (≈ 16.3 µM)
MIC80 (Cryptococcus neoformans [12]): 7.8 µg/mL (≈ 32.6 µM)
MIC (Torulaspora delbrueckii): 7.8 µg/mL (≈ 32.6 µM)
MIC50 (Torulaspora delbrueckii): 3.9 µg/mL (≈ 16.3 µM)
MIC80 (Torulaspora delbrueckii): 3.9 µg/mL (≈ 16.3 µM)
MIC (Candida albicans [13]): 31.2 µg/mL (≈ 130 µM)
MIC50 (Candida albicans [13]): 3.9 µg/mL (≈ 16.3 µM)
MIC80 (Candida albicans [13]): 15.6 µg/mL (≈ 65.2 µM)
MIC (Aspergillus niger): 250 µg/mL (≈ 1040 µM)
MIC (Candida parapsilosis): 7.8 µg/mL (≈ 32.6 µM)
MIC50 (Candida parapsilosis): 7.8 µg/mL (≈ 32.6 µM)
MIC80 (Candida parapsilosis): 3.9 µg/mL (≈ 16.3 µM)
MIC (Trichophyton benhamiae [14]): 1.95 µg/mL (≈ 8.15 µM)
MIC (Candida albicans [15]): 15.6 µg/mL (≈ 65.2 µM)
MIC50 (Candida albicans [15]): 3.9 µg/mL (≈ 16.3 µM)
MIC80 (Candida albicans [15]): 7.8 µg/mL (≈ 32.6 µM)
MIC (Cryptococcus neoformans [16]): 7.8 µg/mL (≈ 32.6 µM)
MIC50 (Cryptococcus neoformans [16]): 1.9 µg/mL (≈ 7.94 µM)
MIC80 (Cryptococcus neoformans [16]): 1.9 µg/mL (≈ 7.94 µM)
MIC (Cryptococcus neoformans [2]): 7.8 µg/mL (≈ 32.6 µM)
MIC (Trichophyton benhamiae [17]): 1.95 µg/mL (≈ 8.15 µM)
MIC (Saccharomyces cerevisiae): 7.8 µg/mL (≈ 32.6 µM)
MIC (Candida albicans [18]): 15.6 µg/mL (≈ 65.2 µM)
MIC50 (Candida albicans [18]): 7.8 µg/mL (≈ 32.6 µM)
MIC80 (Candida albicans [18]): 7.8 µg/mL (≈ 32.6 µM)
MIC (Trichophyton benhamiae [19]): 0.97 µg/mL (≈ 4.05 µM)
MIC (Trichophyton benhamiae [20]): 1.95 µg/mL (≈ 8.15 µM)
MIC (Cryptococcus neoformans [21]): 7.8 µg/mL (≈ 32.6 µM)
MIC50 (Cryptococcus neoformans [21]): 3.9 µg/mL (≈ 16.3 µM)
MIC80 (Cryptococcus neoformans [21]): 3.9 µg/mL (≈ 16.3 µM)
MIC (Aspergillus fumigatus): 250 µg/mL (≈ 1040 µM)
MIC (Candida albicans [22]): 15.6 µg/mL (≈ 65.2 µM)
MIC50 (Candida albicans [22]): 7.8 µg/mL (≈ 32.6 µM)
MIC80 (Candida albicans [22]): 15.6 µg/mL (≈ 65.2 µM)
MIC (Nakaseomyces glabratus): 7.8 µg/mL (≈ 32.6 µM)
MIC50 (Nakaseomyces glabratus): 3.9 µg/mL (≈ 16.3 µM)
MIC80 (Nakaseomyces glabratus): 3.9 µg/mL (≈ 16.3 µM)
MIC (Trichophyton benhamiae [3]): 7.8 µg/mL (≈ 32.6 µM)
MIC (Clavispora lusitaniae): 7.8 µg/mL (≈ 32.6 µM)
MIC50 (Clavispora lusitaniae): 3.9 µg/mL (≈ 16.3 µM)
MIC80 (Clavispora lusitaniae): 3.9 µg/mL (≈ 16.3 µM)
MIC (Cryptococcus neoformans [23]): 7.8 µg/mL (≈ 32.6 µM)
MIC50 (Cryptococcus neoformans [23]): 1.9 µg/mL (≈ 7.94 µM)
MIC80 (Cryptococcus neoformans [23]): 3.9 µg/mL (≈ 16.3 µM)
MIC (Cryptococcus neoformans [24]): 15.6 µg/mL (≈ 65.2 µM)
MIC50 (Cryptococcus neoformans [24]): 7.8 µg/mL (≈ 32.6 µM)
MIC80 (Cryptococcus neoformans [24]): 7.8 µg/mL (≈ 32.6 µM)
MIC (Cryptococcus neoformans [25]): 15.6 µg/mL (≈ 65.2 µM)
MIC50 (Cryptococcus neoformans [25]): 1.9 µg/mL (≈ 7.94 µM)
MIC80 (Cryptococcus neoformans [25]): 1.9 µg/mL (≈ 7.94 µM)
Compound: O=C1NC(=S)S/C1=C\c1ccc(F)cc1
MFC (Pichia kudriavzevii): 62.5 µg/mL (≈ 261 µM)
MFC (Cryptococcus neoformans [4]): 15.6 µg/mL (≈ 65.2 µM)
MFC (Cryptococcus neoformans [5]): 15.6 µg/mL (≈ 65.2 µM)
MFC (Cryptococcus neoformans [6]): 31.2 µg/mL (≈ 130 µM)
MFC (Cryptococcus neoformans [8]): 31.2 µg/mL (≈ 130 µM)
MFC (Candida albicans [9]): 31.2 µg/mL (≈ 130 µM)
MFC (Candida albicans [10]): 31.2 µg/mL (≈ 130 µM)
MFC (Kluyveromyces marxianus): 31.2 µg/mL (≈ 130 µM)
MFC (Candida tropicalis): 15.6 µg/mL (≈ 65.2 µM)
MFC (Cryptococcus neoformans [11]): 31.2 µg/mL (≈ 130 µM)
MFC (Cryptococcus neoformans [12]): 31.2 µg/mL (≈ 130 µM)
MFC (Torulaspora delbrueckii): 15.6 µg/mL (≈ 65.2 µM)
MFC (Candida albicans [13]): 62.5 µg/mL (≈ 261 µM)
MFC (Candida parapsilosis): 15.6 µg/mL (≈ 65.2 µM)
MFC (Candida albicans [15]): 31.2 µg/mL (≈ 130 µM)
MFC (Cryptococcus neoformans [16]): 62.5 µg/mL (≈ 261 µM)
MFC (Candida albicans [18]): 31.2 µg/mL (≈ 130 µM)
MFC (Cryptococcus neoformans [21]): 31.2 µg/mL (≈ 130 µM)
MFC (Candida albicans [22]): 31.2 µg/mL (≈ 130 µM)
MFC (Nakaseomyces glabratus): 51.6 µg/mL (≈ 216 µM)
MFC (Clavispora lusitaniae): 15.6 µg/mL (≈ 65.2 µM)
MFC (Cryptococcus neoformans [23]; read-out: MFC): 31.2 µg/mL (≈ 130 µM)
MFC (Cryptococcus neoformans [24]): 62.5 µg/mL (≈ 261 µM)
MFC (Cryptococcus neoformans [25]): 31.2 µg/mL (≈ 130 µM)
